Source: BindingDB's records for doi:10.1111/cbdd.12863 (Guangzhou Institutes of Biomedicine and Health, Chinese …, 2017)

Tests used:
[1] = target: T1, Discoidin domain-containing receptor 2 (Homo sapiens, UniProt Q16832); assay: LanthaScreen Eu Kinase Activity Assay; conditions: pH 7.5; 25 °C
T1 sequence (Q16832 whole entry): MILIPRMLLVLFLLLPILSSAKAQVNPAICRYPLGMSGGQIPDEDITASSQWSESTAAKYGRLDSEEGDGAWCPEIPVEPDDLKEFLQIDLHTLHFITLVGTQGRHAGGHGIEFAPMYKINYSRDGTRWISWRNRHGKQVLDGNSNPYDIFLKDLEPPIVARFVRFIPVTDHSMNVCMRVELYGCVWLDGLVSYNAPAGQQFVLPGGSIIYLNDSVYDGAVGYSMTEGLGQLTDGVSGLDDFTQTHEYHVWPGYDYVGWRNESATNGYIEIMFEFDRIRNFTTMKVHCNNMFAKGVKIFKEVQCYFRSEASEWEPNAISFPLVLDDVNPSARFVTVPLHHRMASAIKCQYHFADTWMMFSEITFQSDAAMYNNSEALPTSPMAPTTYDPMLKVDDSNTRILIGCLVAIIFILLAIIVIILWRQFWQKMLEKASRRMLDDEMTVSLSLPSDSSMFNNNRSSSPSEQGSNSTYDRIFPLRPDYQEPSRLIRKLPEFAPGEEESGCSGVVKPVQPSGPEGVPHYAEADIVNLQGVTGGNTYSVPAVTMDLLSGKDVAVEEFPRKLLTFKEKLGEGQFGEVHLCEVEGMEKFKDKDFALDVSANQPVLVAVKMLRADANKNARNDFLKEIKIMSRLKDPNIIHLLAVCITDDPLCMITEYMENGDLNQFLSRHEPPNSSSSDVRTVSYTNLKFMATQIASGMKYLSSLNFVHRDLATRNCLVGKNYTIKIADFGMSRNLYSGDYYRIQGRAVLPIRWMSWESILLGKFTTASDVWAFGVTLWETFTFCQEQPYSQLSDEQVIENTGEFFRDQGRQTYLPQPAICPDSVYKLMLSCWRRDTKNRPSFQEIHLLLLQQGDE
Description: (§1) The effects of compounds on the kinases DDR1 and DDR2 were assessed by using a LanthaScreen Eu kinase activity assay technology (Invitrogen, Carlsbad, CA, USA). […] Reaction buffer for the kinase reaction consists of 50 mm HEPES pH 7.5, 0.01% BRIJ-35, 10 mm MgCl2, and 1 mm EGTA. The concentration of fluorescein-polyGAT substrate (Invitrogen) in the assay was […] reactions were initiated with the addition of […] in the presence of serial dilutions of compounds. The reactions were allowed to proceed for 1 hour at room temperature before a 10 μL preparation of EDTA (20 mm) and Eu-labeled antibody (4 nm) in TR-FRET dilution buffer was added. The final concentration of antibody in the assay well was 2 nm, and the final concentration of EDTA was 10 mm.

[2] = target: Epithelial discoidin domain-containing receptor 1 (Homo sapiens, UniProt Q08345); assay: LanthaScreen Eu Kinase Activity Assay; conditions: pH 7.5; 25 °C
Description: as §1

Chain of Epithelial discoidin domain-containing receptor 1 (Q08345 whole entry, the tested form may be a part): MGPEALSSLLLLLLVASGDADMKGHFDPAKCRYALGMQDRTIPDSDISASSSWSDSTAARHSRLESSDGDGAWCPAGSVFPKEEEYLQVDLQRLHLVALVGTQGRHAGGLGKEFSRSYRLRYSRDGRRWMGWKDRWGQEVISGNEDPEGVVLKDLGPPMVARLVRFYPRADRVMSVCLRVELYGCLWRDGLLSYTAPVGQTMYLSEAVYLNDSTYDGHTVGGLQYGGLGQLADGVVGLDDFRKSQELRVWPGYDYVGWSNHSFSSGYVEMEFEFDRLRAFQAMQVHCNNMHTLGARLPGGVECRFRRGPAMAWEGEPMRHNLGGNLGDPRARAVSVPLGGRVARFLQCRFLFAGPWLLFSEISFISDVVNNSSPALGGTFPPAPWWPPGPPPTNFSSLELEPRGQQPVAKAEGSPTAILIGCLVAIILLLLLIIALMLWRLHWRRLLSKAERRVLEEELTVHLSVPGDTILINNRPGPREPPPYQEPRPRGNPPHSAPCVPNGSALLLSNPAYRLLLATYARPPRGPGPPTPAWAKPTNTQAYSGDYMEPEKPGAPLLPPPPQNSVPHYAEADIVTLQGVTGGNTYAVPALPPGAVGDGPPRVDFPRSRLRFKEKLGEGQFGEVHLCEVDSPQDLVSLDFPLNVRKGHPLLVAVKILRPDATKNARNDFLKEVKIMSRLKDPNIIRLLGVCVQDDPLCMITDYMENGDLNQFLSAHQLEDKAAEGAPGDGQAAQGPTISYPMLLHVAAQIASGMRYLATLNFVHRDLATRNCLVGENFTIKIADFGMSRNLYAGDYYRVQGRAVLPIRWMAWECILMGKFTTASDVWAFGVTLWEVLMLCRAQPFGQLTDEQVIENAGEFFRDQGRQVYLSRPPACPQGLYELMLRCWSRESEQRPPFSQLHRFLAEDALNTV

- IC50 [1]: 0.0383 µM
- IC50 [2]: 0.0117 µM
SMILES: Cc1nc(Nc2ncc(C(=O)Nc3c(C)cccc3Cl)s2)cc(NC2CCN(S(C)(=O)=O)C2)n1 (configuration not stated) [N-(2-chloro-6-methylphenyl)-2-((2-methyl-6-((1-(methylsulfonyl)pyrrolidin-3-yl)amino)-pyrimidin-4-yl)amino)thiazole-5-carboxamide (5i)]
